In patent publication US11517729B2, “Integrated fiber microneedle device for drug and vaccine delivery” (University of Washington, priority 2018, dated 2022):

Test: Release studies of integrated fiber microneedles in PBS
Type: physicochemical
Experimental: A small molecule drug, a model protein, and plasmid DNA were loaded into individual devices and the release kinetics of each were measured. These agents were loaded into an array of 420 needles, with a total device size of 4.2 cm^2. In this experiment, the needles were 350 μm in diameter and 800 μm tall. […] Each agent was successfully loaded into the fiber-microneedle system using a loading of 100 μg for the small molecule, […] for the protein, and 1.1 μg for the DNA. […] This plateau occurred at different percent release for the different agents. The small molecule plateaued at 70% release, the protein plateaued at 35% release, and the plasmid DNA plateaued around 80% release. […]
Data represent release from a single array of integrated fiber microneedles. Complete (100%) release was determined by TFV detected in release media after 84 days. […] 100% release was determined by DNA detected in release media after 25 days.
Microneedle characterization: SEM imaging of electrospun fibers on the two-layer composite microneedle molds and completed microneedles was performed on a JEOL JSM7400F cold field emission scanning electron microscope. […] TFV content was determined by HPLC (Shimadzu Prominence LC20AD UV-HPLC) with a Phenomenex Luna 153 C18 column and LCSolutions software. […] The column was heated to 30° C., and TFV was detected at 259 nm. BSA content was analyzed by the Pierce MicroBCA Assay. […]

With C[C@H](Cn1cnc2c(N)ncnc21)OCP(=O)(O)O [TFV, tenofovir] the “plateau of percent release” value (TFV from integrated fiber microneedles into PBS, HPLC, 100% = TFV detected in release media after 84 days, single array) was 70% and the release profile (from integrated fiber microneedles (array of 420 needles) into PBS) was “sharp initial burst release followed by a plateau”.
